Experimental data: patent US12678471B2 (priority 2022, dated 2026)
Read-outs that look alike come from different tables or passages of the source.

Assays:
Assay type in all cases: cell-based
[1] = tested on: Omicron S protein pseudotyped lentivirus (spike protein of the SARS-CoV-2 Omicron variant); test: microbe, parasite or virus in culture; details: read-out: Half inhibition concentration of viral infection (IC50) Omicron
[2] = tested on: D614G S protein pseudotyped lentivirus (spike protein of the SARS-CoV-2 D614G variant); details: read-out: Half inhibition concentration of viral infection (IC50) D614G
[3] = tested on: Delta S protein pseudotyped lentivirus (spike protein of the SARS-CoV-2 Delta variant); details: ACE2-293T cells; virus pretreated with compound 1 hour at 37° C.; 24 hours infection; mean ± SD (n = 3); read-out: Half inhibition concentration of viral infection (IC50) Delta

Compound | IC50 ([1]; Lentivirus) | IC50 [2] | IC50 [1] | IC50 [3]
COc1cc2c3cc1Oc1c(OC)c(OC)cc4c1[C@@H](Cc1ccc(O)c(c1)Oc1ccc(cc1)C[C@@H]3N(C)CC2)N(C)CC4 [Berbamine] | 2290 ± 290 nM | – | – | –
Bersavine | – | 1240 ± 170 nM | 1710 ± 340 nM | 2860 ± 130 nM
Aromoline | – | – | 860 ± 120 nM | 470 ± 80 nM
COc1cc2c3cc1Oc1c(O)c(OC)cc4c1[C@@H](Cc1ccc(O)c(c1)Oc1ccc(cc1)C[C@@H]3N(C)CC2)N(C)CC4 [Obamegine] | 1190 ± 160 nM | 1400 ± 350 nM | – | –
